Measured values from patent US9896441B2 (Lycera Corporation, priority 2014, dated 2018).

Columns and labels:
RORγ-LBD = target: T1, RORγ-LBD (Homo sapiens, UniProt P51449); assay: RORγ-Ligand Binding Domain (LBD) TR-FRET Assay; assay type: biochemical; conditions: for TR-FRET Assay Max Response: maximum response;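 as to TR-FRET Assay Max Response: 665/615 nm signal ratio set to 100 without ursolic acid or test compound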
T1 construct: made in house; host or cells: SF9 cells (baculovirus); used as diluted lysate
T1 sequence (P51449 269-508 limits assumed): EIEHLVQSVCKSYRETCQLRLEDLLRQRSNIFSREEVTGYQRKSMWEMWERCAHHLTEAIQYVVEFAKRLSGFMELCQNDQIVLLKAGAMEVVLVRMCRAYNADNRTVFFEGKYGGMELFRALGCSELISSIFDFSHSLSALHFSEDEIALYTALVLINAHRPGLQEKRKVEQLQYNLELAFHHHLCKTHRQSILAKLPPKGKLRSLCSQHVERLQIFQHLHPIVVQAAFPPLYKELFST
In short: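 This TR-FRET coactivator assay pairs baculovirus-expressed His-RORγ-LBD (~3 nM final) with biotin-SRC1 LXXLL peptide at 200 nM final in pH 7.0 Tris/KCl/EDTA/DTT/BSA buffer.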

Gal4-RORγ-LBD = target: T2, Gal4-RORγ-LBD (Homo sapiens, UniProt P51449); assay: Gal4-RORγ Luciferase Reporter Assay in HEK-293T Cells; assay type: cell-based; conditions: HEK-293 cells; for Gal4-RORγ Assay Max Response: maximum response
T2 construct: expressed in transfected cells
T2 sequence (P51449 269-508 limits assumed): T1 sequence (P51449 269-508 limits assumed)
In short: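 HEK-293 cells were co-transfected with Gal4-RORγ-LBD and a Gal4-luciferase reporter, then exposed overnight at 37 °C to compounds with […] ursolic acid present (0.2% DMSO). Luminescence was read with One-Glo after 10 min at RT, untreated signal was set as 100, and Max Response was taken as the upper plateau of a 4-parameter logistic fit.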

[1] = luciferase reporter, with ursolic acid
[2] = luciferase reporter, in presence of ursolic acid
[3] = with 2 μM ursolic acid (RORγ antagonist), highest test concentration 10 μM
[4] = ursolic acid present, luciferase readout

| Compound | EC50 (RORγ-LBD; RORγ-LBD TR-FRET) [µM] | EC50 (Gal4-RORγ-LBD; [1]) [µM] | EC50 (RORγ-LBD; RORγ-LBD TR-FRET assay) [µM] | EC50 (Gal4-RORγ-LBD; [2]) [µM] | TR-FRET Assay Max Response (RORγ-LBD; RORγ-LBD TR-FRET assay) | Gal4-RORγ Assay Max Response (Gal4-RORγ-LBD; [2]) | other results |
| --- | --- | --- | --- | --- | --- | --- | --- |
| C/C(=C\c1ccc2c(c1)N(S(=O)(=O)c1cccc(C(F)(F)F)c1)C[C@@H](O)C2)c1c(F)cccc1Cl [Example 161, (S,E)-7-(2-(2-Chloro-6-fluorophenyl)prop-1-en-1-yl)-1-((3-(trifluoromethyl)phenyl)sulfonyl)-1,2,3,4-tetrahydroquinolin-3-ol] |  |  | < 0.5 | < 0.5 | ** (a value in the range of greater than 90 to 150) | ** (a value in the range of greater than 90 to 150) |  |
| C/C(=C\c1ccc2c(c1)N(S(=O)(=O)c1cccc(C(F)(F)F)c1)C[C@H](CCC(=O)N1CCC(C)(C(=O)O)CC1)O2)c1c(F)cccc1Cl [Example 129N, (S,E)-1-(3-(6-(2-(2-chloro-6-fluorophenyl)-prop-1-en-1-yl)-4-((3-(trifluoromethyl)phenyl)sulfonyl)-3,4-dihydro-2H-benzo[b][1,4]oxazin-2-yl)propanoyl)-4-methylpiperidine-4-carboxylic acid] |  |  | < 0.5 | < 0.5 | *** (a value in the range of greater than 150 to 200) | ** (a value in the range of greater than 90 to 150) |  |
| C/C(=C\c1ccc2c(c1)N(S(=O)(=O)c1cccc(C(F)(F)F)c1)C[C@H](CCCN1CCCC1)O2)c1c(F)cccc1Cl [Example 117, (S,E)-6-(2-(2-Chloro-6-fluorophenyl)prop-1-en-1-yl)-2-(3-(pyrrolidin-1-yl)propyl)-4-((3-(trifluoromethyl)phenyl)sulfonyl)-3,4-dihydro-2H-benzo[b][1,4]oxazine] |  |  | < 0.5 | 0.5 to 5 | *** (a value in the range of greater than 150 to 200) | ** (a value in the range of greater than 90 to 150) |  |
| C/C(=C\c1ccc2c(c1)C(S(=O)(=O)c1cccc(C(F)(F)F)c1)CC(CNS(C)(=O)=O)O2)c1c(F)cccc1Cl (stereo not shown) [Example 184, (E)-N-((6-(2-(2-Chloro-6-fluorophenyl)prop-1-en-1-yl)-4-((3-(trifluoromethyl)phenyl)sulfonyl)chroman-2-yl)methyl)methanesulfonamide] |  |  | < 0.5 | < 0.5 | *** (a value in the range of greater than 150 to 200) | ** (a value in the range of greater than 90 to 150) |  |
| O=S(=O)(c1cccc(C(F)(F)F)c1)N1C[C@H](CCO)Oc2ccc(COc3c(F)cccc3Cl)cc21 |  |  |  |  |  |  | EC50 (RORγ-LBD; [3]): < 0.5 µM; EC50 (Gal4-RORγ-LBD; [4]): 0.5 to 5 µM |
| COC(=O)CC[C@H]1CN(S(=O)(=O)c2cccc(OC(F)F)c2)c2cc(/C=C/c3ccccc3OC)ccc2O1 [Example 89AZ, (S,E)-methyl 3-(4-((3-(difluoromethoxy)phenyl)sulfonyl)-6-(2-methoxystyryl)-3,4-dihydro-2H-benzo[b][1,4]oxazin-2-yl)propanoate] | < 0.5 | < 0.5 |  |  |  |  |  |
| O=C(O)CC[C@H]1CN(S(=O)(=O)c2cccc(C(F)F)c2)c2cc(/C=C/c3c(Cl)cccc3C(F)(F)F)ccc2O1 [Example 82, (S,E)-3-(6-(2-Chloro-6-(trifluoromethyl)styryl)-4-((3-(difluoromethyl)phenyl)sulfonyl)-3,4-dihydro-2H-benzo[b][1,4]oxazin-2-yl)propanoic acid] | < 0.5 | < 0.5 |  |  |  |  |  |
| COC(=O)CC[C@H]1CN(S(=O)(=O)c2cccc(C(F)(F)F)c2)c2cc(/C=C3\CCOc4ccccc43)ccc2O1 [Example 38A, methyl (S,E)-3-(6-(chroman-4-ylidenemethyl)-4-((3-(trifluoromethyl)phenyl)sulfonyl)-3,4-dihydro-2H-benzo[b][1,4]oxazin-2-yl)propanoate] | < 0.5 | 0.5 to 5 |  |  |  |  |  |
| O=C(O)CC[C@H]1CN(S(=O)(=O)c2cccc(C(F)(F)F)c2)c2cc(C3=CCCC3)ccc2O1 [Example 192, (S)-3-(6-(cyclopent-1-en-1-yl)-4-((3-(trifluoromethyl)phenyl)sulfonyl)-3,4-dihydro-2H-benzo[b][1,4]oxazin-2-yl)propanoic acid] |  |  |  |  |  |  | EC50 (RORγ-LBD; [3]): < 0.5 µM; EC50 (Gal4-RORγ-LBD; [4]): 0.5 to 5 µM |
| CCOc1nn(CC)cc1S(=O)(=O)N1C[C@H](CCC(=O)OC)Oc2ccc(/C=C(\C)c3c(Cl)cccc3C(F)(F)F)cc21 [Example 86AX, methyl (S,E)-3-(6-(2-(2-chloro-6-(trifluoromethyl)phenyl)prop-1-en-1-yl)-4-((3-ethoxy-1-ethyl-1H-pyrazol-4-yl)sulfonyl)-3,4-dihydro-2H-benzo[b][1,4]oxazin-2-yl)propanoate] | < 0.5 | 0.5 to 5 |  |  |  |  |  |
| COc1cc(S(=O)(=O)N2c3cc(OCc4c(F)cccc4Cl)ccc3C=C(CO)[C@H]2C)ccc1F [Example 138, (R)-(7-((2-Chloro-6-fluorobenzyl)oxy)-1-((4-fluoro-3-methoxyphenyl)sulfonyl)-2-methyl-1,2-dihydroquinolin-3-yl)methanol] |  |  | < 0.5 | < 0.5 | ** (a value in the range of greater than 90 to 150) | *** (a value in the range of greater than 150 to 200) |  |

More lines, main results first:

| EC50 (RORγ-LBD; RORγ-LBD TR-FRET) [µM] | EC50 (Gal4-RORγ-LBD; [1]) [µM] | EC50 (RORγ-LBD; RORγ-LBD TR-FRET assay) [µM] | EC50 (Gal4-RORγ-LBD; [2]) [µM] | Compound | TR-FRET Assay Max Response (RORγ-LBD; RORγ-LBD TR-FRET assay) | Gal4-RORγ Assay Max Response (Gal4-RORγ-LBD; [2]) | other results |
| --- | --- | --- | --- | --- | --- | --- | --- |
| < 0.5 | 0.5 to 5 |  |  | CCOc1ncc(Cl)cc1S(=O)(=O)N1C[C@H](CCC(=O)OC)Oc2ccc(/C=C/c3c(F)cccc3Cl)cc21 [Example 89CW, methyl (S,E)-3-(4-((5-chloro-2-ethoxypyridin-3-yl)sulfonyl)-6-(2-chloro-6-fluorostyryl)-3,4-dihydro-2H-benzo[b][1,4]oxazin-2-yl)propanoate] |  |  |  |
| < 0.5 | < 0.5 |  |  | COC(=O)CC[C@H]1CN(S(=O)(=O)c2cccc(C(F)F)c2)c2cc(/C=C/c3c(Cl)cccc3C(F)F)ccc2O1 [Example 89EQ, methyl (S,E)-3-(6-(2-chloro-6-(difluoromethyl)styryl)-4-((3-(difluoromethyl)phenyl)-sulfonyl)-3,4-dihydro-2H-benzo[b][1,4]oxazin-2-yl)propanoate] |  |  |  |
| < 0.5 | 0.5 to 5 |  |  | CCOc1nn(CC)cc1S(=O)(=O)N1C[C@H](CCC(=O)O)Oc2ccc(/C=C/c3ccsc3)cc21 [Example 89K, (S,E)-3-(4-((3-ethoxy-1-ethyl-1H-pyrazol-4-yl)sulfonyl)-6-(2-(thiophen-3-yl)vinyl)-3,4-dihydro-2H-benzo[b][1,4]oxazin-2-yl)propanoic acid] |  |  |  |
| < 0.5 | 0.5 to 5 |  |  | COC(=O)CC[C@H]1CN(S(=O)(=O)c2cccc(OC(F)F)c2)c2c(ccc(/C=C(\C)c3c(F)cccc3Cl)c2F)O1 [Example 63, Methyl (S,E)-3-(6-(2-(2-chloro-6-fluorophenyl)prop-1-en-1-yl)-4-((3-(difluoromethoxy)phenyl)sulfonyl)-5-fluoro-3,4-dihydro-2H-benzo[b][1,4]oxazin-2-yl)propanoate] |  |  |  |
| > 10 | > 10 |  |  | CCOc1nn(CC)cc1S(=O)(=O)N1C[C@H](CCC(=O)O)Oc2ccc(/C=C/c3nccnc3Cl)cc21 [Example 89M, (S,E)-3-(6-(2-(3-chloropyrazin-2-yl)vinyl)-4-((3-ethoxy-1-ethyl-1H-pyrazol-4-yl)sulfonyl)-3,4-dihydro-2H-benzo[b][1,4]oxazin-2-yl)propanoic acid] |  |  |  |
|  |  | < 0.5 | < 0.5 | CC(=O)N[C@@H]1Cc2ccc(OCc3c(F)cccc3Cl)cc2N(S(=O)(=O)c2cccc(C(F)(F)F)c2)C1 [Example 160, (R)—N-(7-((2-chloro-6-fluorobenzyl)oxy)-1-((3-(trifluoromethyl)phenyl)sulfonyl)-1,2,3,4-tetrahydroquinolin-3-yl)acetamide] |  |  |  |
| < 0.5 | < 0.5 |  |  | COC(=O)CC[C@H]1CN(S(=O)(=O)c2c(OC)nn3c2CCCC3)c2cc(/C=C(\C)c3c(F)cccc3Cl)ccc2O1 [Example 86L, (S,E)-methyl 3-(6-(2-(2-chloro-6-fluorophenyl)prop-1-en-1-yl)-4-((2-methoxy-4,5,6,7-tetrahydropyrazolo[1,5-a]pyridin-3-yl)-sulfonyl)-3,4-dihydro-2H-benzo[b][1,4]oxazin-2-yl)-propanoate] |  |  |  |
| < 0.5 | 0.5 to 5 |  |  | C/C(=C\c1ccc2c(c1)N(S(=O)(=O)c1cn(CC(F)F)nc1OCCO)C[C@H](CCC(=O)O)O2)c1c(F)cccc1Cl [Example 86AZ, (S)-3-(6-(2-(2-chloro-6-fluorophenyl)prop-1-en-1-yl)-4-((1-(2,2-difluoroethyl)-3-(2-hydroxyethoxy)-1H-pyrazol-4-yl)sulfonyl)-3,4-dihydro-2H-benzo[b][1,4]oxazin-2-yl)propanoic acid] |  |  |  |
|  |  | < 0.5 | < 0.5 | C/C(=C\c1ccc2c(c1)N(S(=O)(=O)c1cccc(C(F)(F)F)c1)C[C@H](CCNS(C)(=O)=O)O2)c1c(F)cccc1Cl [Example 114, (S,E)-N-(2-(6-(2-(2-Chloro-6-fluorophenyl)prop-1-en-1-yl)-4-((3-(trifluoromethyl)phenyl)sulfonyl)-3,4-dihydro-2H-benzo[b][1,4]oxazin-2-yl)ethyl)methanesulfonamide] | *** (a value in the range of greater than 150 to 200) | ** (a value in the range of greater than 90 to 150) |  |
